Results published in patent US12479856B2, “Pharmaceutical compounds for the treatment of complement mediated disorders” (Achillion Pharmaceuticals, Inc., priority 2019, dated 2025).

Target: T1, Human complement C1s enzyme (Homo sapiens, UniProt P09871)
T1 construct: purified from human serum, Complement Technology, Inc; purchased Complement Technology, Inc; host or cells: human serum (plasma-derived natural protein)
T1 sequence (P09871 438-688 limits assumed): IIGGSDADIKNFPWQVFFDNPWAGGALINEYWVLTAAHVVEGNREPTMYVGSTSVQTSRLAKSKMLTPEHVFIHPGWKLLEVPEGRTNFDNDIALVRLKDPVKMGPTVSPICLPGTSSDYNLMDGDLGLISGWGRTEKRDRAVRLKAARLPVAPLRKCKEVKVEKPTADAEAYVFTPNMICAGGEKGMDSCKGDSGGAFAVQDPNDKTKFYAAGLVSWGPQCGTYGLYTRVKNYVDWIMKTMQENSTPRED
T1 sequence (P09871 16-437 partner limits assumed): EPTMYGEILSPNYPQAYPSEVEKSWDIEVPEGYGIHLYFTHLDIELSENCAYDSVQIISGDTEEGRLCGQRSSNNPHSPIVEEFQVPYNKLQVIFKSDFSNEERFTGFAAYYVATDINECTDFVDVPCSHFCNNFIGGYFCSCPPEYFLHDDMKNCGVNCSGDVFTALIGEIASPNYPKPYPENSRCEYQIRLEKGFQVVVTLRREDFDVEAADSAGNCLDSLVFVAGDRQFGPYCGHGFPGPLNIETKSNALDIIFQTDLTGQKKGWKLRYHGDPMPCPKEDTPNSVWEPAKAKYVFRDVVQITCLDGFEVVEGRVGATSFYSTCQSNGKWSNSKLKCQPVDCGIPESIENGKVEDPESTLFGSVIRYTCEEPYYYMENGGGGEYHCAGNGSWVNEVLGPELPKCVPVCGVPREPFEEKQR
Experiment: Human C1s Enzyme Assay
Assay type: biochemical
Conditions: Table 1; C1s purified from human serum, 1.16 nM; substrate Z-L-Lys-SBzl; read-out: C1s Protease Activity
Protocol: Example 4. Human C1s Enzyme Assay
Human complement C1s enzyme (purified from human serum, Complement Technology, Inc.) at 1.16 nM final concentration is incubated with test compound at various concentrations for 5 min at room temperature in 50 mM Tris, 1 M NaCl, pH 7.5. A synthetic substrate Z-L-Lys-SBzl and DTNB (Ellman's reagent) are added to final concentrations of 100 μM each. Absorbance at 405 nm (A405) is recorded at 30 second intervals for 30 min using a microplate spectrophotometer. IC50 values are calculated by nonlinear regression of complement C1s reaction rates as a function of test compound concentration.

| IC50 [nM] | Compound |
| --- | --- |
| < 100 | C[C@H]1C[C@@H](C(=O)NCc2cc(C(=N)N)cs2)N(C(=O)CNC(=O)c2ccc(Oc3ccccc3)cc2)C1 [Compound 30, (2S,4S)—N-[(4-carbamimidoylthiophen-2-yl)methyl]-4-methyl-1-{2-[(4-phenoxyphenyl)formamido]acetyl}pyrrolidine-2-carboxamide] |
| < 100 | C[C@@]12C[C@@H]1N(C(=O)CNC(=O)c1ccc(Oc3ccccc3)cc1)[C@H](C(=O)NCc1cc(C(=N)N)cs1)C2 [Compound 9, (1S,3S,5S)—N-[(4-Carbamimidoylthiophen-2-yl)methyl]-5-methyl-2-{2-[(4-phenoxyphenyl)formamido]acetyl}-2-azabicyclo[3.1.0]hexane-3-carboxamide] |
| > 1000 | N=C(N)c1csc(CNC(=O)[C@@H]2CC3(CCCCC3)CN2C(=O)CNC(=O)c2ccc(Oc3ccccc3)cc2)c1 [Compound 13, (3S)—N-[(4-Carbamimidoylthiophen-2-yl)methyl]-2-{2-[(4-phenoxyphenyl)formamido]acetyl}-2-azaspiro[4.5]decane-3-carboxamide] |
| 100 to 1000 | N=C(N)c1csc(CNC(=O)C2CC3(CC3)CN2C(=O)CNC(=O)c2ccc(Oc3ccccc3)cc2)c1 (stereo not shown) [Compound 10, N-[(4-Carbamimidoylthiophen-2-yl)methyl]-5-{2-[(4-phenoxyphenyl)formamido]acetyl}-5-azaspiro[2.4]heptane-6-carboxamide] |
| < 100 | CO[C@@H]1C[C@@H](C(=O)NCc2cc(C(=N)N)cs2)N(C(=O)CNC(=O)c2ccc(Oc3ccccc3)cc2)C1 [Compound 32, (2S,4R)—N-[(4-carbamimidoylthiophen-2-yl)methyl]-4-methoxy-1-{2-[(4-phenoxyphenyl)formamido]acetyl}pyrrolidine-2-carboxamide] |

Further lines, the molecule ahead of its results:

| Compound | IC50 [nM] |
| --- | --- |
| N=C(N)CCCCNC(=O)[C@@H]1CCCN1C(=O)CNC(=O)c1ccc(Oc2ccccc2)cc1 [Compound 29, (S)-N-(5-amino-5-iminopentyl)-1-((4-phenoxybenzoyl)glycyl)pyrrolidine-2-carboxamide] | > 1000 |
| N=C(N)c1cccc(CNC(=O)[C@@H]2CC3(CN2C(=O)CNC(=O)c2ccc(Oc4ccccc4)cc2)OCCO3)c1 [Compound 18, (8S)—N-[(3-Carbamimidoylphenyl)methyl]-7-{2-[(4-phenoxyphenyl)formamido]acetyl}-1,4-dioxa-7-azaspiro[4.4]nonane-8-carboxamide] | > 1000 |

Same assay, conditions: Table 2; C1s purified from human serum, 1.16 nM; substrate Z-L-Lys-SBzl; read-out: C1s Protease Activity

| IC50 [nM] | Compound |
| --- | --- |
| > 1000 | CO[C@@H]1C[C@H](C(=O)CNC(=O)c2ccc(Oc3ccccc3)cc2)[C@@H](C(=O)NCc2cc(C(=N)N)cs2)C1 [Compound 62, N-(2-((1S,2S,4R)-2-(((4-carbamimidoylthiophen-2-yl)methyl)carbamoyl)-4-methoxycyclopentyl)-2-oxoethyl)-4-phenoxybenzamide] |
| < 100 | CC(c1ccccc1)c1ccc(C(=O)NCC(=O)N2CCC[C@H]2C(=O)NCc2cc(C(=N)N)cs2)cc1 (stereo partly drawn) [Compound 58, (2S)-N-((4-carbamimidoylthiophen-2-yl)methyl)-1-((4-(1-phenylethyl)benzoyl)glycyl)pyrrolidine-2-carboxamide] |
| < 100 | N=C(N)c1csc(CNC(=O)[C@@H]2CCCN2C(=O)CCC(=O)c2ccc(Oc3ccccc3)cc2)c1 [Compound 52, (S)-N-((4-carbamimidoylthiophen-2-yl)methyl)-1-(4-oxo-4-(4-phenoxyphenyl)butanoyl)pyrrolidine-2-carboxamide] |
| > 1000 | NCc1csc(CNC(=O)[C@@H]2CCCN2C(=O)CNC(=O)c2ccc(Oc3ccccc3)cc2)c1 [Compound 55, (S)-N-((4-(aminomethyl)thiophen-2-yl)methyl)-1-((4-phenoxybenzoyl)glycyl)pyrrolidine-2-carboxamide] |

Further lines, the molecule ahead of its results:

| Compound | IC50 [nM] |
| --- | --- |
| CCCCCCCC(=O)NCC(=O)N1CCC[C@H]1C(=O)NCc1cc(C(=N)N)cs1 [Compound 84, (S)-N-((4-carbamimidoylthiophen-2-yl)methyl)-1-(octanoylglycyl)pyrrolidine-2-carboxamide] | < 100 |
| N=C(N)c1csc(CNC(=O)[C@@H]2CCCN2CCCC(=O)c2ccc(Oc3ccccc3)cc2)c1 [Compound 54, (S)-N-((4-carbamimidoylthiophen-2-yl)methyl)-1-(4-oxo-4-(4-phenoxyphenyl)butyl)pyrrolidine-2-carboxamide] | > 1000 |
| N=C(N)c1csc(CNC(=O)[C@@H]2CCCN2C(=O)CCCc2ccc(Oc3ccccc3)cc2)c1 [Compound 53, (S)-N-((4-carbamimidoylthiophen-2-yl)methyl)-1-(4-(4-phenoxyphenyl)butanoyl)pyrrolidine-2-carboxamide] | < 100 |
| CCCc1ccc(C(=O)NCC(=O)N2CCC[C@H]2C(=O)NCc2cc(C(=N)N)cs2)cc1 [Compound 72, (S)-N-((4-carbamimidoylthiophen-2-yl)methyl)-1-((4-propylbenzoyl)glycyl)pyrrolidine-2-carboxamide] | < 100 |
| C[C@H](OCc1ccccc1)[C@H](OCc1ccccc1)[C@@H](OCc1ccccc1)[C@H](CN(CC(=O)N1CC2(C[C@H]1C(=O)NCc1cc(C(=N)N)cs1)OCCO2)C(=O)OCc1ccccc1)OCc1ccccc1 [Compound 87, benzyl (2-((S)-8-(((4-carbamimidoylthiophen-2-yl)methyl)carbamoyl)-1,4-dioxa-7-azaspiro[4.4]nonan-7-yl)-2-oxoethyl)((2S,3S,4S,5S)-2,3,4,5-tetrakis(benzyloxy)hexyl)carbamate] | > 1000 |
| CCCc1cc(C(=O)NCC(=O)N2CCC[C@H]2C(=O)NCc2cc(C(=N)N)cs2)ccc1Oc1ccccc1 [Compound 41, (S)-N-((4-carbamimidoylthiophen-2-yl)methyl)-1-((4-phenoxy-3-propylbenzoyl)glycyl)pyrrolidine-2-carboxamide] | < 100 |
| N=C(N)c1csc(CNC(=O)[C@@H]2CCCN2C(=O)CNC(=O)CCCCc2ccccc2)c1 [Compound 80, (S)-N-((4-carbamimidoylthiophen-2-yl)methyl)-1-((5-phenylpentanoyl)glycyl)pyrrolidine-2-carboxamide] | < 100 |
| CN(C)CCCCC(=O)NCC(=O)N1CCC[C@H]1C(=O)NCc1cc(C(=N)N)cs1 [Compound 70, (S)-N-((4-carbamimidoylthiophen-2-yl)methyl)-1-((5-(dimethylamino)pentanoyl)glycyl)pyrrolidine-2-carboxamide] | > 1000 |
| CC(C)(c1ccccc1)c1ccc(C(=O)NCC(=O)N2CCC[C@H]2C(=O)NCc2cc(C(=N)N)cs2)cc1 [Compound 57, (S)-N-((4-carbamimidoylthiophen-2-yl)methyl)-1-((4-(2-phenylpropan-2-yl)benzoyl)glycyl)pyrrolidine-2-carboxamide] | < 100 |

Same assay, conditions: Table 3; C1s purified from human serum, 1.16 nM; substrate Z-L-Lys-SBzl; read-out: C1s Protease Activity

| IC50 [nM] | Compound |
| --- | --- |
| > 1000 | C[C@@]12C[C@@H]1N(C(=O)CNC(=O)c1ccc(Oc3ccccc3)cc1)[C@H](C(=O)NCc1cc(/C(N)=N/O)cs1)C2 [Compound 94, (1S,3S,5S)-N-((4-((Z)-N′-hydroxycarbamimidoyl)thiophen-2-yl)methyl)-5-methyl-2-((4-phenoxybenzoyl)glycyl)-2-azabicyclo[3.1.0]heptane-3-carboxamide] |
| < 100 | N=C(N)c1csc(CNC(=O)[C@@H]2C[C@H](C(F)(F)F)CN2C(=O)CNC(=O)c2ccc(Oc3ccccc3)cc2)c1 [Compound 100, (2S,4S)-N-((4-carbamimidoylthiophen-2-yl)methyl)-1-((4-phenoxybenzoyl)glycyl)-4-(trifluoromethyl)pyrrolidine-2-carboxamide] |
| < 100 | Cc1cccc(O[C@H]2C[C@@H](C(=O)NCc3cc(C(=N)N)cs3)N(C(=O)CNC(=O)c3ccc(Oc4ccccc4)cc3)C2)c1 [Compound 104, (2S,4S)-N-((4-carbamimidoylthiophen-2-yl)methyl)-1-((4-phenoxybenzoyl)glycyl)-4-(m-tolyloxy)pyrrolidine-2-carboxamide] |

The next lines start with the molecule.

| Compound | IC50 [nM] |
| --- | --- |
| C[C@@]12C[C@@H]1N(C(=O)CNC(=O)c1ccc(Oc3ccc(S(F)(F)(F)(F)F)cc3)cc1)[C@H](C(=O)NCc1cc(C(=N)N)cs1)C2 [Compound 95, (1S,3S,5S)-N-((4-carbamimidoylthiophen-2-yl)methyl)-5-methyl-2-((4-(4-(pentafluoro-16-sulfaneyl)phenoxy)benzoyl)glycyl)-2-azabicyclo[3.1.0]hexane-3-carboxamide] | < 100 |
| C[C@@]12C[C@@H]1N(C(=O)CNC(=O)c1ccc(Oc3ccccc3)cc1)[C@H](C(=O)NCc1cc(C#N)cs1)C2 [Compound 93, (1S,3S,5S)-N-((4-cyanothiophen-2-yl)methyl)-5-methyl-2-((4-phenoxybenzoyl)glycyl)-2-azabicyclo[3.1.0]hexane-3-carboxamide] | > 1000 |
